How the values were obtained:
[1] = Organoleptic test of the compounds against sucrose (intrinsic sweetness); type: in vivo; set-up: key: 3: sweeter than the control solution; 2: sweetness comparable with the control solution; 1: less sweet than the control solution but still sweet; 0: no intrinsic sweetness; conditions: 3-4 panelists; for Sweetness 50 ppm: compound 50 ppm in mineral water vs sucrose 20 g/l; for Sweetness 200 ppm: compound 200 ppm in mineral water vs sucrose 20 g/l
Description: The isolated pure compounds were dissolved in non-carbonated mineral water (“Evian”) in a concentration of 0.2 mg/ml (200 ppm) and 0.05 mg/ml (50 ppm). The sweet taste of each sample was compared by a panel of 3-4 panelists with a solution of sucrose in a concentration of 20 g/l.

[2] = Organoleptic comparison of Compound 1 with Millettiasaponin A; type: in vivo; conditions: both at 200 ppm and 50 ppm in mineral water; 4 panelists
Description: Milettiasaponin A was published as sweet taste principle of an extract prepared from Derris eriocarpa (150× sweeter than sucrose) [J. Agric. Food Chem. 2017, 65, 2357-2363]. Milletiasaponin A has an additional hydroxyl group at C-24 compared to compound 1. Both compounds were dissolved in non-carbonated mineral water (“Evian”) in a concentration of 0.2 mg/ml (200 ppm) and 0.05 mg/ml (50 ppm). The sweet taste of both samples was compared by a panel of 4 panelists.

[3] = Organoleptic test in combination with sucrose against sucrose (sucrose enhancement), 2-AFC; type: in vivo; set-up: key: 3: sweeter than the control solution; 2: sweetness comparable with the control solution; 1: less sweet than the control solution but still sweet; 0: no intrinsic sweetness; conditions: 12 to 15 panelists; for Sweet taste enhancement of sucrose, control solution Sucrose 6%: compound 50 ppm in 6% sucrose solution vs 6% sucrose; for Sweet taste enhancement of sucrose, control solution Sucrose 7%: compound 50 ppm in 6% sucrose solution vs 7% sucrose; for Sweet taste enhancement of sucrose, control solution Sucrose 8%: compound 50 ppm in 6% sucrose solution vs 8% sucrose; for Sweet taste enhancement of sucrose, control solution Sucrose 9%: compound 50 ppm in 6% sucrose solution vs 9% sucrose
Description: The isolated pure compounds were dissolved in non-carbonated mineral water (“Evian”) in a concentration of 50 ppm (0.05 mg/ml), 25 ppm (0.025 mg/ml), […] (0.0125 mg/ml) and […] (0.00625 mg/ml). The sweet taste of each sample was detected by a panel of 4 panelists to detect the sweetness perception level. The highest concentration below the sweetness perception level was used for the evaluation of the sweet taste enhancement of sucrose.
A solution of the isolated compound in a concentration below the sweetness perception level was dissolved in 6% sucrose solution. The sweet taste of this sample was compared to the sweet taste of a 6% sucrose solution by a panel of 12 to 15 panelists in a two-alternative forced-choice test (2-AFC. E2164-16_Standard Test Method for Directional Difference Test). The panelists were trained to differentiate between the sweetness of a 6%, 7%, 8%, and 9% sucrose solution. The sweetness of the solution of the enhancer in 6% sucrose was compared with sucrose solutions in concentrations of 6%, 7%, 8%, and 9%.

[4] = Organoleptic test in combination with Rebaudioside M against Rebaudioside M (Rebaudioside M enhancement), 2-AFC; type: in vivo; set-up: key: 3: sweeter than the control solution; 2: sweetness comparable with the control solution; 1: less sweet than the control solution but still sweet; 0: no intrinsic sweetness; conditions: 12 to 15 panelists; for Sweet taste enhancement, control solution Reb M 150 ppm: compound in 150 ppm Rebaudioside M solution vs Reb M 150 ppm; for Sweet taste enhancement, control solution Reb M 170 ppm: compound in 150 ppm Rebaudioside M solution vs Reb M 170 ppm; for Sweet taste enhancement, control solution Reb M 190 ppm: compound in 150 ppm Rebaudioside M solution vs Reb M 190 ppm; for Sweet taste enhancement, control solution Reb M 210 ppm: compound in 150 ppm Rebaudioside M solution vs Reb M 210 ppm
Description: The isolated pure compounds were dissolved in non-carbonated mineral water (“Evian”) in a concentration of 50 ppm (0.05 mg/ml), 25 ppm (0.025 mg/ml), […] (0.0125 mg/ml) and […]. The sweet taste of each sample was detected by a panel of 3-4 panelists to detect the sweetness perception level. The highest concentration below the sweetness perception level was used for the evaluation of the sweet taste enhancement of Rebaudioside M.
A solution of the isolated compound in a concentration below the sweetness perception level was dissolved in 150 ppm Rebaudioside M solution. […] E2164-16_Standard Test Method for Directional Difference Test). The panelists were trained to differentiate between the sweetness of a 150 ppm, 170 ppm, 190 ppm, and a 210 ppm Rebaudioside M solution.

[5] = 5% sucrose in water; concentration of 100 μm; cited from earlier work
[6] = J. Agric. Food Chem. 2017, 65, 2357-2363; cited from earlier work

CC(=O)O[C@@H]1C[C@](C)(C(=O)O)C[C@H]2C3=CCC4[C@@]5(C)CC[C@H](O[C@@H]6O[C@H](C(=O)O)[C@@H](O)[C@H](O)[C@H]6O[C@@H]6O[C@H](CO)[C@H](O)[C@H](O)[C@H]6O[C@@H]6O[C@@H](C)[C@H](O)[C@@H](O)[C@H]6O)C(C)(C)C5CC[C@@]4(C)[C@]3(C)CC[C@@]12C (stereo partly shown) [Compound 1, 24-Desoxy- Millettiasaponin A]
Sweetness 50 ppm [1]: 3
Sweetness 200 ppm [1]: 3
Sweet taste compared with Milletiasaponin A [2]: sweeter with less aftertaste than Milletiasaponin A
Sweet taste enhancement of sucrose, control solution Sucrose 6% [3]: 3
Sweet taste enhancement of sucrose, control solution Sucrose 7% [3]: 3
Sweet taste enhancement of sucrose, control solution Sucrose 8% [3]: 3
Sweet taste enhancement of sucrose, control solution Sucrose 9% [3]: 3
Sweet taste enhancement, control solution Reb M 150 ppm [4]: 3
Sweet taste enhancement, control solution Reb M 170 ppm [4]: 3
Sweet taste enhancement, control solution Reb M 190 ppm [4]: 2
Sweet taste enhancement, control solution Reb M 210 ppm [4]: 2

COc1cc([C@H]2c3cc(O)c(OC)cc3C[C@@H](CO[C@@H]3O[C@H](CO)[C@@H](O)[C@H](O)[C@H]3O)[C@@H]2CO)ccc1O [Compound 3, Isolariciresinol 9-glucoside]
Sweetness 50 ppm [1]: 0
Sweetness 200 ppm [1]: 0
Sweet taste enhancement of sucrose, control solution Sucrose 6% [3]: 3
Sweet taste enhancement of sucrose, control solution Sucrose 7% [3]: 3
Sweet taste enhancement of sucrose, control solution Sucrose 8% [3]: 3
Sweet taste enhancement of sucrose, control solution Sucrose 9% [3]: 2
Sweet taste enhancement, control solution Reb M 150 ppm [4]: 3
Sweet taste enhancement, control solution Reb M 170 ppm [4]: 3
Sweet taste enhancement, control solution Reb M 190 ppm [4]: 2
Sweet taste enhancement, control solution Reb M 210 ppm [4]: 1

COc1ccc([C@@H]2CC(=O)c3c(O)cc(O)cc3O2)cc1O [hesperetin]
Enhancement of the sweetness of sucrose [5]: 41%

CC1=C(C(=O)O[C@@H]2O[C@H](CO[C@@H]3OC[C@@H](O)[C@H](O)[C@H]3O)[C@@H](O)[C@H](O)[C@H]2O)C(C)(C)CCC1 [Compound 2, Jasminoside M]
Sweetness 50 ppm [1]: 0
Sweetness 200 ppm [1]: 0
Sweet taste enhancement of sucrose, control solution Sucrose 6% [3]: 3
Sweet taste enhancement of sucrose, control solution Sucrose 7% [3]: 3
Sweet taste enhancement of sucrose, control solution Sucrose 8% [3]: 3
Sweet taste enhancement of sucrose, control solution Sucrose 9% [3]: 2
Sweet taste enhancement, control solution Reb M 150 ppm [4]: 3
Sweet taste enhancement, control solution Reb M 170 ppm [4]: 3
Sweet taste enhancement, control solution Reb M 190 ppm [4]: 2
Sweet taste enhancement, control solution Reb M 210 ppm [4]: 1

CCCCCc1cc2cc(O)cc(Oc3c(O)cc(O)cc3CCCCC)c2c(=O)o1 [Compound 4, Physodone]
Sweetness 50 ppm [1]: 0
Sweetness 200 ppm [1]: 0
Sweet taste enhancement of sucrose, control solution Sucrose 6% [3]: 3
Sweet taste enhancement of sucrose, control solution Sucrose 7% [3]: 3
Sweet taste enhancement of sucrose, control solution Sucrose 8% [3]: 3
Sweet taste enhancement of sucrose, control solution Sucrose 9% [3]: 2
Sweet taste enhancement, control solution Reb M 150 ppm [4]: 3
Sweet taste enhancement, control solution Reb M 170 ppm [4]: 3
Sweet taste enhancement, control solution Reb M 190 ppm [4]: 3
Sweet taste enhancement, control solution Reb M 210 ppm [4]: 1

CC(=O)O[C@@H]1C[C@](C)(C(=O)O)C[C@H]2C3=CCC4[C@@]5(C)CC[C@H](O[C@@H]6O[C@H](C(=O)O)[C@@H](O)[C@H](O)[C@H]6O[C@@H]6O[C@H](CO)[C@H](O)[C@H](O)[C@H]6O[C@@H]6O[C@@H](C)[C@H](O)[C@@H](O)[C@H]6O)[C@](C)(CO)C5CC[C@@]4(C)[C@]3(C)CC[C@@]12C (stereo partly shown) [Milettiasaponin A]
Sweetness relative to sucrose [6]: 150 × sweeter than sucrose
